{"source": "paper PMC5907623", "about": "(Cancer Chemotherapy and Pharmacology, 2018)", "key": {"[1]": {"design": "method as in PMID 29066505", "settings": "cited from earlier work"}, "[2]": {"assay": "Part B: effect of food (overnight fast versus standardized meal) on steady-state PK of AZD5363 tablet in patients", "type": "in vivo, human", "settings": "for AUCτ, Gmean (CV%) / Cmax, Gmean (CV%) / Cmin, Gmean (CV%) / tmax, median (range): tablet 480 mg bid, steady state, N = 9", "procedure": "(§1) Patients had been fasting overnight prior to the breakfast and no further food was permitted for 4 h post-dose.\nThe bioanalytical method used to generate AZD5363 plasma concentration data for the derivation of PK parameters for the study had been previously validated, according to regulatory guidance, by Covance UK Ltd on behalf of AstraZeneca. Following the addition of internal standard ([^13C6]AZ12886380), calibration, quality control (QC) and study samples (25 µL) were processed by solid-phase extraction then assayed for AZD5363 by liquid chromatography–tandem mass spectrometry. […] All trial samples were analysed within the known stability period for AZD5363 and all a priori assay acceptance criteria were met, in accordance with regulatory guidance.\nPK parameters were derived using non-compartmental methods (Phoenix® WinNonlin®). Plasma concentration–time profiles were analysed to determine Cmax, Cmin and tmax, while AUCτ was determined from application of the linear-up/log-down trapezoidal rule.\nThe statistical analysis for estimating the food and capsule effect was based on analysing log-transformed PK parameters AUCτ and Cmax using a fixed-effects model with terms for patient and treatment only. All statistical calculations and analyses were performed with SAS® software, version 9.1.3 or higher. Other PK parameters are presented descriptively."}, "[3]": {"assay": "Part B: safety and tolerability (adverse events, CTCAE v4.0) of AZD5363 tablet, fasted versus fed", "type": "in vivo, human", "procedure": "as §1\nSafety assessments throughout the study encompassed the incidence and severity of AEs (graded according to Common Terminology Criteria for Adverse Events [CTCAE] version 4.0), in addition to laboratory parameters (haematology, clinical chemistry, urinalysis), physical examination, 12-lead electrocardiography (ECG), and vital signs. To assess safety in the fed versus fasted state, the period during and just after the fasted day was considered relevant to the fasted dose (Days 4–7), and similarly, the fed day and subsequent days were considered relevant to the fed state (Days 11–14). Any AE occurring after the first dose of study treatment and up to 28 days after the last dose of study treatment was included in the AE summaries.\nThe safety analysis set comprised all patients who received at least one dose of AZD5363. All safety data are presented descriptively."}, "[4]": {"settings": "Day 11, fed (standardized meal)"}, "[5]": {"settings": "tablet, N = 9, 90% CI where printed in brackets"}, "[6]": {"settings": "tablet, Day 15 onward, partially fasted, N = 12"}, "[7]": {"settings": "tablet, Days 4–7, fasted dose, N = 12"}}}
{"substance": "4-amino-N-[(1S)-1-(4-chlorophenyl)-3-hydroxypropyl]-1-(7H-pyrrolo[2,3-d]pyrimidin-4-yl)piperidine-4-carboxamide [AZD5363]", "values": [{"measurement": "Dose proportionality of plasma exposure", "setting": "[1]; dose range 80–800 mg", "value": "approximately dose proportional"}, {"measurement": "Dose excreted in urine as unchanged drug", "setting": "[1]; patients", "value": "less than 10%"}, {"measurement": "Terminal half life", "setting": "[1]; patients", "value": "approximately 10 h"}, {"measurement": "Pre-dose plasma concentration, geometric least-squares mean", "setting": "[2]; Day 8, 3 days after the last dose on Day 4", "value": 3.34, "unit": "ng/mL"}, {"measurement": "Average steady-state concentration over the 12-h dosing interval (geometric mean AUCτ/12)", "setting": "[2]; Day 11", "value": 678, "unit": "ng/mL"}, {"measurement": "AUCτ, Gmean (CV%)", "setting": "[2]; Day 4, overnight fasted", "value": "9116 (16.8) h ng/mL"}, {"measurement": "Cmax, Gmean (CV%)", "setting": "[2]; Day 4, overnight fasted", "value": "1842 (31.1) ng/mL"}, {"measurement": "Cmin, Gmean (CV%)", "setting": "[2]; Day 4, overnight fasted", "value": "218.5 (30.3) ng/mL"}, {"measurement": "tmax, median (range)", "setting": "[2]; Day 4, overnight fasted", "value": "0.6 (0.5–4) h"}, {"measurement": "AUCτ, Gmean (CV%)", "setting": "[2]; [4]", "value": "8136 (33.9) h ng/mL"}, {"measurement": "Cmax, Gmean (CV%)", "setting": "[2]; [4]", "value": "1239 (23.3) ng/mL"}, {"measurement": "Cmin, Gmean (CV%)", "setting": "[2]; [4]", "value": "262.3 (58.6) ng/mL"}, {"measurement": "tmax, median (range)", "setting": "[2]; [4]", "value": "2.0 (2–4.3) h"}, {"measurement": "AUCτ GLSM ratio fed:fasted", "setting": "[2]; [5]", "value": 0.89}, {"measurement": "Cmax GLSM ratio fed:fasted", "setting": "[2]; [5]", "value": 0.67}, {"measurement": "Number of SAEs", "setting": "[3]; in six patients of 12", "value": 11}, {"measurement": "Abdominal pain, All", "setting": "[3]; [6]", "value": "1 (8.3) Number of patients (%)"}, {"measurement": "Abdominal pain, Grade ≥ 3", "setting": "[3]; [6]", "value": "1 (8.3) Number of patients (%)"}, {"measurement": "Anaemia, All", "setting": "[3]; [6]", "value": "1 (8.3) Number of patients (%)"}, {"measurement": "Anaemia, Grade ≥ 3", "setting": "[3]; [6]", "value": "1 (8.3) Number of patients (%)"}, {"measurement": "Any AE (causally related), All", "setting": "[3]; [6]", "value": "10 (83.3) Number of patients (%)"}, {"measurement": "Any AE (causally related), Grade ≥ 3", "setting": "[3]; [6]", "value": "5 (41.7) Number of patients (%)"}, {"measurement": "Any AE (irrespective of causality), All", "setting": "[3]; [6]", "value": "12 (100.0) Number of patients (%)"}, {"measurement": "Any AE (irrespective of causality), Grade ≥ 3", "setting": "[3]; [6]", "value": "7 (58.3) Number of patients (%)"}, {"measurement": "Diarrhoea, All", "setting": "[3]; [6]", "value": "8 (66.7) Number of patients (%)"}, {"measurement": "Diarrhoea, Grade ≥ 3", "setting": "[3]; [6]", "value": "1 (8.3) Number of patients (%)"}, {"measurement": "Hyperglycaemia, All", "setting": "[3]; [6]", "value": "6 (50.0) Number of patients (%)"}, {"measurement": "Hyperglycaemia, Grade ≥ 3", "setting": "[3]; [6]", "value": "5 (41.7) Number of patients (%)"}, {"measurement": "Hypokalaemia, All", "setting": "[3]; [6]", "value": "1 (8.3) Number of patients (%)"}, {"measurement": "Hypokalaemia, Grade ≥ 3", "setting": "[3]; [6]", "value": "1 (8.3) Number of patients (%)"}, {"measurement": "Pneumonia, All", "setting": "[3]; [6]", "value": "1 (8.3) Number of patients (%)"}, {"measurement": "Pneumonia, Grade ≥ 3", "setting": "[3]; [6]", "value": "1 (8.3) Number of patients (%)"}, {"measurement": "Rash macular, All", "setting": "[3]; [6]", "value": "1 (8.3) Number of patients (%)"}, {"measurement": "Rash macular, Grade ≥ 3", "setting": "[3]; [6]", "value": "0 Number of patients (%)"}, {"measurement": "Rash maculopapular, All", "setting": "[3]; [6]", "value": "2 (16.7) Number of patients (%)"}, {"measurement": "Rash maculopapular, Grade ≥ 3", "setting": "[3]; [6]", "value": "2 (16.7) Number of patients (%)"}, {"measurement": "Rash papular, All", "setting": "[3]; [6]", "value": "0 Number of patients (%)"}, {"measurement": "Rash papular, Grade ≥ 3", "setting": "[3]; [6]", "value": "0 Number of patients (%)"}, {"measurement": "Skin discolouration, All", "setting": "[3]; [6]", "value": "1 (8.3) Number of patients (%)"}, {"measurement": "Skin discolouration, Grade ≥ 3", "setting": "[3]; [6]", "value": "1 (8.3) Number of patients (%)"}, {"measurement": "Abdominal pain, All", "setting": "[3]; [7]", "value": "0 Number of patients (%)"}, {"measurement": "Abdominal pain, Grade ≥ 3", "setting": "[3]; [7]", "value": "0 Number of patients (%)"}, {"measurement": "Anaemia, All", "setting": "[3]; [7]", "value": "1 (8.3) Number of patients (%)"}, {"measurement": "Anaemia, Grade ≥ 3", "setting": "[3]; [7]", "value": "0 Number of patients (%)"}, {"measurement": "Any AE (causally related), All", "setting": "[3]; [7]", "value": "4 (33.3) Number of patients (%)"}, {"measurement": "Any AE (causally related), Grade ≥ 3", "setting": "[3]; [7]", "value": "2 (16.7) Number of patients (%)"}, {"measurement": "Any AE (irrespective of causality), All", "setting": "[3]; [7]", "value": "5 (41.7) Number of patients (%)"}]}
